This is an account of results in ChEMBL document CHEMBL1137218, “Long hydrocarbon chain ether diols and ether diacids that favorably alter lipid disorders in vivo” (J Med Chem, 2004).

Assay [1] has as its system Rattus norvegicus. Kind of assay: Insulin levels in female obese rats two weeks post treatment at 3 mg/kg oral dose; pretreatment value = 13.3 ng/mL. Type of assay: functional.
Assay [2] relates to Rattus norvegicus. Briefly: Serum NEFA levels in female obese rats one week post treatment at 100 mg/kg oral dose; pretreatment value = 1.2 mg/dL. It counts as functional.
In assay [3] the test system is Rattus norvegicus. Kind of assay: Blood glucose levels in female obese rats one week post treatment at 10 mg/kg oral dose; pretreatment value = 110 mg/dL. Type of assay: functional.
Assay [4] relates to Rattus norvegicus. Kind of assay: Serum HDL cholesterol levels in female obese rats two weeks post treatment at 100 mg/kg oral dose; pretreatment value = 58 mg/dL. It counts as functional.
Assay [5] has as its system Rattus norvegicus. Briefly: Serum Triglyceride levels in female obese rats one week post treatment at 10 mg/kg oral dose; pretreatment value = 1185 mg/dL. Type of assay: functional.
Assay [6] relates to Rattus norvegicus. Briefly: Serum HDL cholesterol levels in female obese rats one week post treatment at 30 mg/kg oral dose; pretreatment value = 49 mg/dL. It counts as functional.
Assay [7] has as its system Rattus norvegicus. Briefly: Serum Non-HDL cholesterol levels in female obese rats two weeks post treatment at 10 mg/kg oral dose; pretreatment value = 33 mg/dL.
For assay [8], the system named is Rattus norvegicus. Kind of assay: Serum NEFA levels in female obese rats one week post treatment at 3 mg/kg oral dose; pretreatment value = 1.2 mg/dL. Type of assay: functional.
For assay [9], the system named is Rattus norvegicus. Briefly: Serum Triglyceride levels in female obese rats two weeks post treatment at 30 mg/kg oral dose; pretreatment value = 1240 mg/dL. Type of assay: functional.
For assay [10], the system named is Rattus norvegicus. Briefly: Insulin levels in female obese rats one week post treatment at 10 mg/kg oral dose; pretreatment value = 8.2 ng/mLL. It counts as functional.
Assay [11] concerns Rattus norvegicus. Briefly: Insulin levels in female obese rats one week post treatment at 100 mg/kg oral dose; pretreatment value = 12.7 ng/mL. It counts as functional.

Regarding `CC(C)(CO)CCCCCOCCCCCC(C)(C)CO`, the Activity in the assay on Rattus norvegicus [1] turned out to be 11.4 ng/mL; in the assay with Rattus norvegicus [2], 1.2 mg/dL; with Rattus norvegicus [3], 100 mg/dL; with Rattus norvegicus [4], 134 mg/dL; with Rattus norvegicus [5], 1159 mg/dL; with Rattus norvegicus [6], 128 mg/dL. The Activity in the assay on Rattus norvegicus [7] was found to be 53 mg/dL.

For the molecule `CC(C)(CO)CCCCOCCCCC(C)(C)CO`, the Activity in the assay with Rattus norvegicus [8] is 1.7 mg/dL; with Rattus norvegicus [9], 324 mg/dL; in the assay with Rattus norvegicus [10], 8.9 ng/mL; in the assay with Rattus norvegicus [11] it was 14.5 ng/mL.
